The term melting point denotes the temperature, or range, at which the solid turns liquid. Turning to `CN(CCCCCCCC(=O)O)C(=O)c1ccccc1O` [Compound 1, 8-[(2-Hydroxy-benzoyl)-methyl-amino]-octanoic acid], the melting point is 85 to 88 °C.

The values are drawn from US20050147662A1, “Compounds and compositions for delivering active agents” (Emisphere Technologies, Inc., priority 2003, published 2005).
